From ChEMBL document CHEMBL5316291 (J Med Chem, 2023)
The source made the active and inactive calls. The calls are words filed in the database; no cut-off is given here.

What was measured:
[1] = target: Poly [ADP-ribose] polymerase 2 (Homo sapiens, UniProt Q9UGN5); assay: Inhibition of human recombinant N-terminal GST-tagged PARP2 (2 to 583 residues) expressed in baculovirus infected Sf9 cells expression system incubated for 1 hr by ELISA assay
[2] = target: T1, Poly [ADP-ribose] polymerase tankyrase-1 (Homo sapiens, UniProt O95271); assay: Inhibition of human recombinant N-terminal GST-tagged PARP5a (1001 to 1327 end residues) expressed in baculovirus infected Sf9 cells expression system incubated for 1 hr by ELISA assay
T1 sequence (O95271 whole entry): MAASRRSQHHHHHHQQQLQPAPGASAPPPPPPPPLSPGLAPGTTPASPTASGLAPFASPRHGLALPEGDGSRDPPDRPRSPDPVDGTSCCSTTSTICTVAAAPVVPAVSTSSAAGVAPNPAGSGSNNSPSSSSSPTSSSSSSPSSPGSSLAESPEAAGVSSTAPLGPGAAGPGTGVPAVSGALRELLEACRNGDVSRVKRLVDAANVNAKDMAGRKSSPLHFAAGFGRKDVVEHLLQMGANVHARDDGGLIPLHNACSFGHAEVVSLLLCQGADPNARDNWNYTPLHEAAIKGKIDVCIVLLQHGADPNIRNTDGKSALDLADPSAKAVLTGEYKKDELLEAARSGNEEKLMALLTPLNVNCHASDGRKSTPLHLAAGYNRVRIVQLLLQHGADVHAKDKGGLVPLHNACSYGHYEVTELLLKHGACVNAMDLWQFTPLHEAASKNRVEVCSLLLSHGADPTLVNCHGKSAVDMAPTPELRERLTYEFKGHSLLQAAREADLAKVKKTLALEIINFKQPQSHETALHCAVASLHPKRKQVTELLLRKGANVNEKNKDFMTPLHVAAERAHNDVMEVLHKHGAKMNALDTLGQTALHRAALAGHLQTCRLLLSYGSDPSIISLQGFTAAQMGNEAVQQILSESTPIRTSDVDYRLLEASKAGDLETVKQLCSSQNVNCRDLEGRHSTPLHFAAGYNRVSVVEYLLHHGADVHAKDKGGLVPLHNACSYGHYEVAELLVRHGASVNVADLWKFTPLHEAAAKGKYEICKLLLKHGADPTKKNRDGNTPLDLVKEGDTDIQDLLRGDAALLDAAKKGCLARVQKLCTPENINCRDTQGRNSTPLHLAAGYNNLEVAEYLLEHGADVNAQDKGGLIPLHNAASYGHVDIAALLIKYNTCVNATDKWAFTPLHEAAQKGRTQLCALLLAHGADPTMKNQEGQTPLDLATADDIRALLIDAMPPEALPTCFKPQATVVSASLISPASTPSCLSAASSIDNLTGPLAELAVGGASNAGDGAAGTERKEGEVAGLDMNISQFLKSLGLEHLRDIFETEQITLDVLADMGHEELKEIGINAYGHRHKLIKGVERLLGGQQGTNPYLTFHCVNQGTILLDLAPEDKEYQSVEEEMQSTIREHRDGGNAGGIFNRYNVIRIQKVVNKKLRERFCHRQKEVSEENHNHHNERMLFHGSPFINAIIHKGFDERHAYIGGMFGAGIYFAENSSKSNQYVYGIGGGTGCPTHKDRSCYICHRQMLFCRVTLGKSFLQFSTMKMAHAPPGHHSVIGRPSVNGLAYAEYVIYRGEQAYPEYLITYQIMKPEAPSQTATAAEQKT

[3] = target: T2, Protein mono-ADP-ribosyltransferase TIPARP (Homo sapiens, UniProt Q7Z3E1); assay: Inhibition of human recombinant N-terminal FLAG-tagged PARP7 (400 to 657 end residues) incubated for 1 hr by ELISA assay
T2 sequence (Q7Z3E1 whole entry): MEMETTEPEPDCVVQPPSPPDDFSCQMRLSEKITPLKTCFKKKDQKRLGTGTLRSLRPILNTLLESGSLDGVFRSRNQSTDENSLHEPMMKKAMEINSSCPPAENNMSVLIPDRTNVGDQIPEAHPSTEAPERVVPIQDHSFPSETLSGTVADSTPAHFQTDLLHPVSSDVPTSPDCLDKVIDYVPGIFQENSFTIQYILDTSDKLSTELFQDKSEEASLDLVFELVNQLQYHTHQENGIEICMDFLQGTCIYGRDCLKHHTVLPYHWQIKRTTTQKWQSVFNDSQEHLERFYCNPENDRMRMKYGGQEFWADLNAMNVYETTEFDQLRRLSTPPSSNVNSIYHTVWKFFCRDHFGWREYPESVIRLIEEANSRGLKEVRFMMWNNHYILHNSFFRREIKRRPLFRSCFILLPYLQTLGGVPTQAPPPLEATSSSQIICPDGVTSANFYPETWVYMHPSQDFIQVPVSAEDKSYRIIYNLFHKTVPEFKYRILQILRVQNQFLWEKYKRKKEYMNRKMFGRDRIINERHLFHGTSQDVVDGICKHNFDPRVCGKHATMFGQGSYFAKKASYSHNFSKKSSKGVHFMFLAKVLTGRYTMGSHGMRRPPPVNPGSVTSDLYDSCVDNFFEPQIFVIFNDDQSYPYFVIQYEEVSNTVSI

[4] = AUC(0 to infinity) in ICR mouse at 1 mg/kg, iv measured upto 24 hrs by LC-MS/MS analysis; assay type: ADME, organism-based; parameters: time < 24 hrs, dose 1 mg/kg, route iv; settings: in vivo
[5] = AUC(0 to infinity) in ICR mouse at 10 mg/kg, po measured upto 24 hrs by LC-MS/MS analysis; assay type: ADME, organism-based; parameters: dose 10 mg/kg, time < 24 hrs, route po; settings: in vivo
[6] = Clearance in ICR mouse at 1 mg/kg, iv measured upto 24 hrs by LC-MS/MS analysis; assay type: ADME, organism-based; settings: in vivo
[7] = MRT(0 to infinity) in ICR mouse at 1 mg/kg, iv measured upto 24 hrs by LC-MS/MS analysis; assay type: ADME, organism-based; settings: in vivo
[8] = Cytotoxicity against mouse AML12 cells assessed as inhibition of cell growth measured after 6 days by MTT assay; assay type: toxicity, cell-based
[9] = Toxicity in BALB/c mouse implanted with mouse CT26 cells assessed as change in body weight at 1000 mg/kg, po measured upto 7 days; assay type: organism-based; settings: in vivo, 168 h, time < 7 day
CT26 [10] = assay: Antitumor activity against mouse CT26 cells xenografted in BALB/c mouse assessed as tumor growth inhibition at 50 mg/kg, po bid measured for 14 days; assay type: functional; settings: CT26, 336 h, time 14 day, read-out: TGI
CT26 [11] = assay: Antitumor activity against mouse CT26 cells implanted in po dosed BALB/c mouse assessed as increase in IFN-beta levels measured after 14 days by RT-qPCR analysis; assay type: functional, organism-based; settings: dose 25-100 mg/kg, time 14.0 day
CT26 [12] = assay: Antitumor activity against mouse CT26 cells implanted in po dosed BALB/c mouse assessed as increase in CXCL10 levels measured after 14 days by RT-qPCR analysis; assay type: functional, organism-based; settings: dose 25-100 mg/kg, time 14.0 day
CT26 [13] = assay: Antitumor activity against mouse CT26 cells implanted in po dosed BALB/c mouse assessed as increase in CXCL10 levels at 100 mg/kg measured after 14 days by RT-qPCR analysis; assay type: functional, organism-based; settings: time 14.0 day
NCI-H1373 = assay: cells; settings: Homo sapiens, NCI-H1373, 144 h
CT26 [14] = assay: cells; settings: Mus musculus, CT26, 144 h

Chain of Poly [ADP-ribose] polymerase 2 (Q9UGN5 whole entry, the tested form may be a part): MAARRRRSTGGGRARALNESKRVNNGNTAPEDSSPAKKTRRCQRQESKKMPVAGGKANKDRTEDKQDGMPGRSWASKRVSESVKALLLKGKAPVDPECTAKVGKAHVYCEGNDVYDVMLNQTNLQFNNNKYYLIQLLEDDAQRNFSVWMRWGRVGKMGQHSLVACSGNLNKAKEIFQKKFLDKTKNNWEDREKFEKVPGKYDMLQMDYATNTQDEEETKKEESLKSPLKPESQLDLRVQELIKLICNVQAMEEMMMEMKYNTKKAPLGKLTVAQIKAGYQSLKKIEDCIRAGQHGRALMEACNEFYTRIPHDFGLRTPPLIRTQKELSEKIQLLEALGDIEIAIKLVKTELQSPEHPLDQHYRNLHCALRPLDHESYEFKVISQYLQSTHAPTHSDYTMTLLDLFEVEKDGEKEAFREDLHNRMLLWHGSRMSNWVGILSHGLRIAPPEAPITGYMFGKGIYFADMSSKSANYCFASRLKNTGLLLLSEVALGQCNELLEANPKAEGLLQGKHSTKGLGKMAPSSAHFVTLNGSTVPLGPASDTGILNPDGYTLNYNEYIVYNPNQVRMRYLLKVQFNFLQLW

IC50 [1]: 546 nM | IC50 [2]: 174 nM | IC50 [3]: 7.6 nM | AUC [4]: 591.1 ng·h/mL | AUC [5]: 5663.5 ng·h/mL | clearance [6]: 29 mL/min/kg | MRT inf [7]: 1.68 h | IC50 (NCI-H1373): 1090 nM | IC50 (CT26 [14]): 19500 nM
Structure (SMILES): C[C@@H](CN1CC(C(=O)N2CCN(c3ncc(C(F)(F)F)cn3)CC2)C1)Nc1cn[nH]c(=O)c1C(F)(F)F
IC50 at 6 days [8]: > 50000 nM | Activity [9]: Non-Toxic | inhibition in vivo at 50 mg/kg (CT26 [10]): 46% | Activity (CT26 [11]): Dose-Dependent Effect | Activity (CT26 [12]): Dose-Dependent Effect | Activity (CT26 [13]): Active
